# From US6737383B1, “Herbicidal oxadiazolidines” (priority 1999, dated 2004)
# How the values were obtained:
# [1] = tested on: cocklebur; assay: Test B pre/postemergence cocklebur; assay type: in vivo, Xanthium strumarium
# Method in brief: (§1)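 Response is a visual 0-to-10 score relative to untreated plants, where 0 means no effect and 10 means complete control, taken twelve to sixteen days after application. Treatments went onto soil at planting and onto foliage of 1- to 4-leaf plants, using a surfactant-containing non-phytotoxic solvent.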
# [2] = tested on: blackgrass; assay: Test B pre/postemergence blackgrass; assay type: in vivo, Alopecurus myosuroides
# Method in brief: as §1
# [3] = tested on: soybean; assay: Test B pre/postemergence soybean; assay type: in vivo, Glycine max; conditions: for Plant response rating, Soybean: Postemergence
# Method in brief: as §1
# [4] = tested on: crabgrass; assay: Test B pre/postemergence crabgrass; assay type: in vivo, Digitaria sanguinalis
# Method in brief: as §1
# [5] = tested on: pigweed; assay: Test B pre/postemergence pigweed; assay type: in vivo, Amaranthus retroflexus; conditions: for Plant response rating, Redroot pigweed: Postemergence
# Method in brief: as §1
# [6] = tested on: surinam grass; assay: Test B pre/postemergence surinam grass; assay type: in vivo, Brachiaria decumbens
# Method in brief: as §1
# [7] = tested on: purple nutsedge; assay: Test B pre/postemergence purple nutsedge; assay type: in vivo, Cyperus rotundus
# Method in brief: as §1
# [8] = tested on: sugar beet; assay: Test B pre/postemergence sugar beet; assay type: in vivo, Beta vulgaris; conditions: for Plant response rating, Sugarbeets: Postemergence
# Method in brief: as §1
# [9] = tested on: rape; assay: Test B pre/postemergence rape; assay type: in vivo, Brassica napus
# Method in brief: as §1
# [10] = tested on: velvetleaf; assay: Test B pre/postemergence velvetleaf; assay type: in vivo, Abutilon theophrasti; conditions: for Plant response rating, Velvetleaf: Postemergence
# Method in brief: as §1
# [11] = tested on: wheat; assay: Test B pre/postemergence wheat; assay type: in vivo, Triticum aestivum; conditions: for Plant response rating, Wheat: Postemergence
# Method in brief: as §1
# [12] = tested on: corn; assay: Test B pre/postemergence corn; assay type: in vivo, Zea mays
# Method in brief: as §1
# [13] = tested on: wild oat; assay: Test B pre/postemergence wild oat; assay type: in vivo, Avena fatua; conditions: for Plant response rating, Wild oats: Postemergence
# Method in brief: as §1
# [14] = tested on: morningglory; assay: Test B pre/postemergence morningglory; assay type: in vivo, Ipomoea hederacea
# Method in brief: as §1
# [15] = tested on: bedstraw; assay: Test B pre/postemergence bedstraw; assay type: in vivo, Galium aparine; conditions: for Plant response rating, Bedstraw: Postemergence
# Method in brief: as §1
# [16] = tested on: giant foxtail; assay: Test B pre/postemergence giant foxtail; assay type: in vivo, Setaria faberii
# Method in brief: as §1
# [17] = Postemergence, Rate 62 g/ha, scale of 0 to 10, 0 is no effect, 10 is complete control
# [18] = Postemergence, Rate 125 g/ha, scale 0 to 10, 0 is no effect, 10 is complete control
# [19] = Postemergence, Rate 500 g/ha, scale of 0 to 10 where 0 is no effect and 10 is complete control
# [20] = Preemergence, Rate 62 g/ha, scale 0 to 10 (0 no effect, 10 complete control)
# [21] = Preemergence, Rate 125 g/ha, scale 0 to 10, 0 is no effect, 10 is complete control
# [22] = Preemergence, Rate 500 g/ha, scale of 0 to 10 where 0 is no effect and 10 is complete control
# [23] = Rate 250 g/ha, Postemergence, scale of 0 to 10 where 0 is no effect and 10 is complete control
# [24] = Rate 500 g/ha, scale of 0 to 10 where 0 is no effect and 10 is complete control
# [25] = Rate 250 g/ha, scale of 0 to 10 where 0 is no effect and 10 is complete control
smiles,measurement,setting,value
CC(=O)C(C)n1c(=O)on(C(=O)N(c2ccccc2)C(C)C)c1=O (centres unmarked) [Compound 576],Cocklebur plant response rating,[1]; [17],0
same,Cocklebur plant response rating,[1]; [18],0
same,"Plant response rating, Cocklebur",[1]; [19],0
same,Cocklebur plant response rating,[1]; [20],0
same,Cocklebur plant response rating,[1]; [21],0
same,Cocklebur plant response rating (0 to 10 scale),"[1]; Preemergence, Rate 250 g/ha",0
same,Cocklebur plant response rating,[1]; [22],0
same,"Plant response rating, Cocklebur",[1]; [23],0
same,Blackgrass plant response rating,[2]; [17],0
same,Blackgrass plant response rating,[2]; [18],0
same,"Plant response rating, Blackgrass",[2]; [19],7
same,Blackgrass plant response rating,[2]; [20],0
same,Blackgrass plant response rating,[2]; [21],3
same,Blackgrass plant response rating (0 to 10 scale),"[2]; Preemergence, Rate 250 g/ha",6
same,Blackgrass plant response rating,[2]; [22],9
same,"Plant response rating, Blackgrass",[2]; [23],2
same,"Plant response rating, Soybean",[3]; [24],4
same,Soybean plant response rating,[3]; [20],0
same,Soybean plant response rating,[3]; [21],0
same,Soybean plant response rating (0 to 10 scale),"[3]; Preemergence, Rate 250 g/ha",0
same,Soybean plant response rating,[3]; [22],0
same,"Plant response rating, Soybean",[3]; [25],3
same,Crabgrass plant response rating,[4]; [17],2
same,Crabgrass plant response rating,[4]; [18],3
same,"Plant response rating, Crabgrass",[4]; [19],9
same,Crabgrass plant response rating,[4]; [20],0
same,Crabgrass plant response rating,[4]; [21],4
same,Crabgrass plant response rating (0 to 10 scale),"[4]; Preemergence, Rate 250 g/ha",9
same,Crabgrass plant response rating,[4]; [22],9
same,"Plant response rating, Crabgrass",[4]; [23],9
same,"Plant response rating, Redroot pigweed",[5]; [24],4
same,Redroot pigweed plant response rating,[5]; [20],0
same,Redroot pigweed plant response rating,[5]; [21],9
same,Redroot pigweed plant response rating (0 to 10 scale),"[5]; Preemergence, Rate 250 g/ha",10
same,Redroot pigweed plant response rating,[5]; [22],10
same,"Plant response rating, Redroot pigweed",[5]; [25],0
same,B. signalgrass plant response rating,[6]; [17],0
same,B. signalgrass plant response rating,[6]; [18],0
same,"Plant response rating, B. signalgrass",[6]; [19],2
same,B. signalgrass plant response rating,[6]; [20],0
same,B. signalgrass plant response rating,[6]; [21],3
same,"B. signalgrass plant response rating (0 to 10 scale, 0 is no effect, 10 is complete control)","[6]; Preemergence, Rate 250 g/ha",6
same,B. signalgrass plant response rating,[6]; [22],9
same,"Plant response rating, B. signalgrass",[6]; [23],0
same,Nutsedge plant response rating,[7]; [17],0
same,Nutsedge plant response rating,[7]; [18],0
same,Nutsedge plant response rating,[7]; [20],0
same,Nutsedge plant response rating,[7]; [21],0
same,Nutsedge plant response rating (0 to 10 scale),"[7]; Preemergence, Rate 250 g/ha",0
same,Nutsedge plant response rating,[7]; [22],8
same,"Plant response rating, Nutsedge",[7]; [23],0
same,"Plant response rating, Sugarbeets",[8]; [24],0
same,Sugarbeets plant response rating,[8]; [20],0
same,Sugarbeets plant response rating,[8]; [21],0
same,Sugarbeets plant response rating (0 to 10 scale),"[8]; Preemergence, Rate 250 g/ha",4
same,Sugarbeets plant response rating,[8]; [22],6
same,"Plant response rating, Sugarbeets",[8]; [25],0
same,Rape plant response rating,[9]; [17],0
same,Rape plant response rating,[9]; [18],0
same,"Plant response rating, Rape",[9]; [19],0
same,Rape plant response rating,[9]; [20],0
same,Rape plant response rating,[9]; [21],0
same,Rape plant response rating (0 to 10 scale),"[9]; Preemergence, Rate 250 g/ha",2
same,Rape plant response rating,[9]; [22],7
same,"Plant response rating, Rape",[9]; [23],0
same,"Plant response rating, Velvetleaf",[10]; [24],0
same,Velvetleaf plant response rating,[10]; [20],0
same,Velvetleaf plant response rating,[10]; [21],0
same,Velvetleaf plant response rating (0 to 10 scale),"[10]; Preemergence, Rate 250 g/ha",0
same,Velvetleaf plant response rating,[10]; [22],3
same,"Plant response rating, Velvetleaf",[10]; [25],0
same,"Plant response rating, Wheat",[11]; [24],0
same,Wheat plant response rating,[11]; [20],0
same,Wheat plant response rating,[11]; [21],6
same,Wheat plant response rating (0 to 10 scale),"[11]; Preemergence, Rate 250 g/ha",8
same,Wheat plant response rating,[11]; [22],8
same,"Plant response rating, Wheat",[11]; [25],0
same,Corn plant response rating,[12]; [17],0
same,Corn plant response rating,[12]; [18],0
same,"Plant response rating, Corn",[12]; [19],4
same,Corn plant response rating,[12]; [20],0
same,Corn plant response rating,[12]; [21],0
same,Corn plant response rating (0 to 10 scale),"[12]; Preemergence, Rate 250 g/ha",0
same,Corn plant response rating,[12]; [22],2
same,"Plant response rating, Corn",[12]; [23],2
same,"Plant response rating, Wild oats",[13]; [24],0
same,Wild oats plant response rating,[13]; [20],0
same,Wild oats plant response rating,[13]; [21],0
same,Wild oats plant response rating (0 to 10 scale),"[13]; Preemergence, Rate 250 g/ha",3
same,Wild oats plant response rating,[13]; [22],8
same,"Plant response rating, Wild oats",[13]; [25],0
same,Morningglory plant response rating,[14]; [17],2
same,Morningglory plant response rating,[14]; [18],2
same,"Plant response rating, Morningglory",[14]; [19],4
same,Morningglory plant response rating,[14]; [20],0
same,Morningglory plant response rating,[14]; [21],0
same,Morningglory plant response rating (0 to 10 scale),"[14]; Preemergence, Rate 250 g/ha",0
same,Morningglory plant response rating,[14]; [22],0
same,"Plant response rating, Morningglory",[14]; [23],4
same,"Plant response rating, Bedstraw",[15]; [24],9
same,Bedstraw plant response rating,[15]; [20],0
same,Bedstraw plant response rating,[15]; [21],0
same,Bedstraw plant response rating (0 to 10 scale),"[15]; Preemergence, Rate 250 g/ha",0
same,Bedstraw plant response rating,[15]; [22],0
same,"Plant response rating, Bedstraw",[15]; [25],5
same,Giant foxtail plant response rating,[16]; [17],2
same,Giant foxtail plant response rating,[16]; [18],3
same,"Plant response rating, Giant foxtail",[16]; [19],8
same,Giant foxtail plant response rating,[16]; [20],2
same,Giant foxtail plant response rating,[16]; [21],4
same,Giant foxtail plant response rating (0 to 10 scale),"[16]; Preemergence, Rate 250 g/ha",9
same,Giant foxtail plant response rating,[16]; [22],9
same,"Plant response rating, Giant foxtail",[16]; [23],7
